Calls of active or inactive are those of the source. The rule behind the calls is not given here.
Columns and labels:
Format in all cases: functional, cell-based
[1] = test system: Splenocyte; assay: Induction of IFN-gamma production in C57BL/6 mouse splenocytes after 48 hrs by cytometric bead array method
[2] = test system: Splenocyte; assay: Induction of IL2 production in C57BL/6 mouse splenocytes after 48 hrs by cytometric bead array method
[3] = test system: Splenocyte; assay: Induction of IL4 production in C57BL/6 mouse splenocytes after 48 hrs by cytometric bead array method
[4] = test system: Splenocyte; assay: Induction of IL10 production in C57BL/6 mouse splenocytes after 48 hrs by cytometric bead array method
[5] = test system: Splenocyte; assay: Induction of IL13 production in C57BL/6 mouse splenocytes after 48 hrs by cytometric bead array method

| SMILES | Activity [1] | Activity [2] | Activity [3] | Activity [4] | Activity [5] |
| --- | --- | --- | --- | --- | --- |
| CCCCCCCCCCCCCCCCCCCCCCCCCC(=O)N1[C@@H](CCCCCCCCCCCCC)C[C@@H](O)[C@@H]1CO[C@@H]1O[C@H](CO)[C@H](O)[C@H](O)[C@H]1O | inactive | inactive | inactive | inactive | inactive |
| CCCCCCCCCCCCCCCCCCCCCCCCCC(=O)N1[C@@H](CCCCCCCCCCCCC)C[C@@H](O)[C@@H]1CO[C@H]1O[C@H](CO)[C@H](O)[C@H](O)[C@H]1O | inactive | inactive | inactive | inactive | inactive |
| CCCCCCCCCCCCCCCCCCCCCCCCCC(=O)N1[C@H](CCCCCCCCCCCCC)C[C@@H](O)[C@@H]1CO[C@@H]1O[C@H](CO)[C@H](O)[C@H](O)[C@H]1O | inactive | inactive | inactive | inactive | inactive |
| CCCCCCCCCCCCCCCCCCCCCCCCCC(=O)N1[C@H](CCCCCCCCCCCCC)C[C@@H](O)[C@@H]1CO[C@H]1O[C@H](CO)[C@H](O)[C@H](O)[C@H]1O | Active | Active | Active | Active | Active |
| CCCCCCCCCCCCCCCCCCCCCCCCCC(=O)N1[C@H](CCCCCCCCCCCCCC)[C@@H](O)[C@@H]1CO[C@@H]1O[C@H](CO)[C@H](O)[C@H](O)[C@H]1O | inactive | inactive | inactive | inactive | inactive |
| CCCCCCCCCCCCCCCCCCCCCCCCCC(=O)N1[C@@H](CCCCCCCCCCCCCC)[C@@H](O)[C@@H]1CO[C@@H]1O[C@H](CO)[C@H](O)[C@H](O)[C@H]1O | inactive | inactive | inactive | inactive | inactive |
| CCCCCCCCCCCCCCCCCCCCCCCCCC(=O)N1[C@@H](CCCCCCCCCCCCCC)[C@@H](O)[C@@H]1CO[C@H]1O[C@H](CO)[C@H](O)[C@H](O)[C@H]1O | Active | Active | Active | Active | Active |
| CCCCCCCCCCCCCCCCCCCCCCCCCC(=O)N1[C@H](CCCCCCCCCCCCCC)[C@@H](O)[C@@H]1CO[C@H]1O[C@H](CO)[C@H](O)[C@H](O)[C@H]1O | inactive | inactive | inactive | inactive | inactive |

Reference: ChEMBL document CHEMBL1143140, “RCAI-8, 9, 18, 19, and 49-52, conformationally restricted analogues of KRN7000 with an azetidine or a pyrrolidine ring: Their synthesis and bioactivity for mouse natural killer T cells to produce cytokines” (Bioorg Med Chem, 2008)
